According to patent publication US12281084B2, “Acetyl-CoA synthetase 2 (ACSS2) inhibitors and methods using same” (The Wistar Institute, priority 2019, dated 2025):

Biological target: T1, recombinant human ACSS2 (Homo sapiens, UniProt Q9NR19)
T1 construct: purchased Origene TP304260
Assay: ACSS2 biochemical assay (Transcreener AMP assay)
Conditions: in vitro biochemical TranScreener assay; mean±S.D., n≥3 (FIG. 1C)
Description: ACSS2 enzyme activity was measured using the TRANSCREENER® TRF AMP/GMP assay (Bellbrook Labs). Recombinant ACSS2 was purchased from Origene. The assay was performed in white, opaque, low volume 384 well plates. Test compounds were diluted in 100% DMSO and then 100 nL of each dilution was transferred using the Janus MDT Nanohead to assay plates containing 3 μL ACSS2 (2.5 nM) in assay buffer (30 mM HEPES, pH 7.4, 140 mM NaCl, 2 mM MgCl2, 5 mM sodium acetate, 2 mM DTT, 0.005% Brij35). Three microliters of substrate mix containing 100 μM ATP and 10 μM coenzyme A was added to the plates followed by a 120 min incubation. The final concentrations of enzyme and substrates in the reaction mix was 1.25 nM ACSS2, 50 μM ATP, and 5 μM coenzyme A. After incubation, 3 μL of terbium conjugated AMP antibody and AMP tracer was added to the plates according to the methods described by BellBrook Labs. After an additional 30 min, the HTRF signal was measured using an Envision Plate reader. Data were normalized to % inhibition, where 100% inhibition is equal to the counts obtained in the absence of ACSS2, and 0% inhibition is equal to the counts obtained in the complete reaction including a DMSO control.
A robust biochemical screening assay was set up for testing compounds as potential ACSS2 inhibitors. […]

T1 sequence (Q9NR19 whole entry): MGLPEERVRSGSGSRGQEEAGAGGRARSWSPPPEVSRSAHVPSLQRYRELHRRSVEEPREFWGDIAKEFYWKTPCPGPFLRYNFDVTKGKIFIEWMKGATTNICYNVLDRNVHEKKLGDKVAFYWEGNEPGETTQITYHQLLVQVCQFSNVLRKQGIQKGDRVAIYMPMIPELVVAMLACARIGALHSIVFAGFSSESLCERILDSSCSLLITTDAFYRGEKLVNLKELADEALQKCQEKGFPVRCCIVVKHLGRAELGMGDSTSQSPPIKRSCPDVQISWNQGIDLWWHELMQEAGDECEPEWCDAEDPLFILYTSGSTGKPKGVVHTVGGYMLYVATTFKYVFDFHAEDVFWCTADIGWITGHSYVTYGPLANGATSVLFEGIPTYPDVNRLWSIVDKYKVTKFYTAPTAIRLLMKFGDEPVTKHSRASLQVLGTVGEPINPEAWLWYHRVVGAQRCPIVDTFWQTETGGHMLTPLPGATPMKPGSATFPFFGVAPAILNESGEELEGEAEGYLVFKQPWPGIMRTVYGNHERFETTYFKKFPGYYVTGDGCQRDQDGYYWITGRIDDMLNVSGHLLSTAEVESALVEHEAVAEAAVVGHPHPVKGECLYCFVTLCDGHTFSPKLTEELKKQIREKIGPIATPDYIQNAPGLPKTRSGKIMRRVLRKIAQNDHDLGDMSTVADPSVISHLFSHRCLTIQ

**Q.** `COCCNC(=O)Nc1ccc2nc(-c3cccs3)c(-c3cccs3)nc2c1` [VY-3-249, 1-(2,3-di(thiophen-2-yl)quinoxalin-6-yl)-3-(2-methoxyethyl)urea] was tested. Which IC50 did it give?
**A.** The IC50 was 1210 ± 128 nM.
